Among the data in patent publication US20260078103A1, “ISOQUINOLONES AS PI3K INHIBITORS” (OnKure, Inc., priority 2022, published 2026) are EC50 and IC50 values, retold here.

Assay type in all cases: cell-based
The subject of test [1] is T47D cells expressing mutant PI3Ka (H1047R). The test is described as follows: In vitro cell proliferation, T47D cells (CellTiter-Glo). The settings on record: Homo sapiens, T47D, 72 h, inhibition of proliferation, read-out: Avg T-47D EC50. Put shortly:
(§1)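 1,500 cells/well seeded onto pre-stamped 10-pt dilution plates; T47D in RPMI + 10% FBS + insulin 0.2 units/mL, SKBR3 in McCoys 5a + 10% FBS. 72 h, 37 °C, 5% CO2. CTG readout. 0% = 0.1% DMSO, 100% = 10 uM Alpelisib; sigmoidal fit gives EC50.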

The subject of test [2] is SKBR3 cells express WT PI3Ka. The test can be described thus: In vitro cell proliferation, SKBR3 cells (CellTiter-Glo). The settings on record: Homo sapiens, SK-BR-3, 72 h, inhibition of proliferation. Put shortly: as §1
For test [3], the system named is phosphorylation of AKT (pAKT) in T47D cells expressing mutant PI3Ka (H1047R). The test can be described thus: In vitro cell pAKT (Ser473) HTRF, T47D cells. The following applies: Homo sapiens, T47D, 6 h, cellular pAKT, T47D cells, mutant PI3Ka (H1047R), 6 hours; read-out: Avg T-47D IC50. A digest of the protocol: (§2)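 Cells seeded on plates pre-stamped with 10-point compound dilutions, then grown 6 h at 37 °C (T47D in RPMI/10% FBS/insulin; SKBR3 in McCoy's 5a/10% FBS). Lysates read for pAKT Ser473 by HTRF after overnight antibody incubation. Inhibition normalised to 0.1% DMSO and 10 uM alpelisib; IC50 by four-parameter fit.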

Test [4] concerns phosphorylation of AKT (pAKT) in SKBR3 cells express WT PI3Ka. The test is described as follows: In vitro cell pAKT (Ser473) HTRF, SKBR3 cells. The settings on record: Homo sapiens, SK-BR-3, 6 h, cellular pAKT. A digest of the protocol: as §2

In the case of `Cc1cc([C@@H](C)Nc2ccccc2C(=O)O)c2cc(NCc3ccc(F)cc3)n(C)c(=O)c2c1` [Example 222], the EC50 is 2000 to 15000 nM in test [1] and more than 15000 nM in test [2]. In addition, the IC50 in test [3] is 2000 to 15000 nM; in test [4], more than 15000 nM.
In the case of `Cc1cc([C@@H](C)Nc2ccccc2C(=O)O)c2cc(-c3cnc(C)cc3C)n(C)c(=O)c2c1` [Example 223], the results for the EC50 in test [1] and in test [2] were 500 to 2000 nM and more than 15000 nM, respectively. For the same molecule, the figures for the IC50 in test [3] and in test [4] were 1 to 500 nM and more than 15000 nM, respectively.
Take `Cc1cc([C@@H](C)Nc2ccccc2C(=O)O)c2cc(-c3ccc(C(C)(C)F)nc3)n(C)c(=O)c2c1` [Example 225]: the EC50 in test [1] was 1 to 500 nM; in test [2], more than 15000 nM. Further, the IC50 in test [3] was 1 to 500 nM; in test [4], more than 15000 nM.
Turning to `Cc1cc([C@@H](C)Nc2ccccc2C(=O)O)c2cc(-c3ccc(C(C)C)nc3)n(C)c(=O)c2c1` [Example 226], the results for the EC50 in test [1] and in test [2] were 1 to 500 nM and more than 15000 nM, respectively. Further, the IC50 in test [3] was 1 to 500 nM; in test [4], more than 15000 nM.
As to `Cc1cc([C@@H](C)Nc2ccccc2C(=O)O)c2cc(-c3ccc(C4CC4)nc3)n(C)c(=O)c2c1` [Example 227], the results for the EC50 in test [1] and in test [2] were 1 to 500 nM and more than 15000 nM, respectively. Also, the figures for the IC50 in test [3] and in test [4] were 1 to 500 nM and more than 15000 nM, respectively.
Turning to `Cc1cc([C@@H](C)Nc2ccccc2C(=O)O)c2cc(-c3ccc(C(C)(F)F)nc3)n(C)c(=O)c2c1` [Example 230], the half-maximal effective concentration (EC50) was 1 to 500 nM in test [1] and more than 15000 nM in test [2]. Besides, the half-maximal inhibitory concentration (IC50) in test [3] was 1 to 500 nM; in test [4], more than 15000 nM.
In the case of `Cc1cc([C@@H](C)Nc2ccccc2C(=O)O)c2cc(N3CCN(c4cnn(C)n4)CC3)n(C)c(=O)c2c1` [Example 231], the EC50 in test [1] was in the range of 1 to 500 nM; in test [2], 2000 to 15000 nM. The IC50 in test [3] was in the range of 1 to 500 nM; in test [4], 2000 to 15000 nM.
For the molecule `Cc1cc([C@@H](C)Nc2ccccc2C(=O)O)c2cc(N3CCN(c4ccn(C)n4)CC3)n(C)c(=O)c2c1` [Example 232], the concentration for a half-maximal effect (EC50) is 1 to 500 nM in test [1] and 2000 to 15000 nM in test [2]. For the same molecule, the IC50 was 1 to 500 nM in test [3] and 2000 to 15000 nM in test [4].
Regarding `CNc1ccc(N2CCN(c3cc4c([C@@H](C)Nc5ccccc5C(=O)O)cc(C)cc4c(=O)n3C)CC2)cn1` [Example 233], the concentration giving a half-maximal response (EC50) in test [1] lay within 1 to 500 nM; in test [2] it was 2000 to 15000 nM. The IC50 lay within 1 to 500 nM in test [3] and 2000 to 15000 nM in test [4].
Take `COc1ncc(-c2cc3c([C@@H](C)Nc4ccccc4C(=O)O)cc(C)cc3c(=O)n2C)cn1` [Example 234]: the EC50 is 1 to 500 nM in test [1] and more than 15000 nM in test [2]. In addition, the results for the half-inhibitory concentration (IC50) in test [3] and in test [4] were 1 to 500 nM and more than 15000 nM, respectively.
Consider `Cc1cc([C@@H](C)Nc2ccccc2C(=O)O)c2cc(N3CCN(c4cncnc4)CC3)n(C)c(=O)c2c1` [Example 235], for which the 50% effective concentration (EC50) fell in the range of 1 to 500 nM in test [1] and 2000 to 15000 nM in test [2]. The 50% inhibitory concentration (IC50) in test [3] fell in the range of 500 to 2000 nM; in test [4], 2000 to 15000 nM.
`Cc1cc([C@@H](C)Nc2ccccc2C(=O)O)c2cc(N3CCN(c4cncnc4C)CC3)n(C)c(=O)c2c1` [Example 236]: the EC50 in test [1] is 1 to 500 nM; in test [2] it was 2000 to 15000 nM. The half-maximal inhibitory concentration (IC50) was in the range of 1 to 500 nM in test [3] and 2000 to 15000 nM in test [4].
Regarding `Cc1cc([C@@H](C)Nc2ccccc2C(=O)O)c2cc(N3CCN(c4cnc(C)nc4)CC3)n(C)c(=O)c2c1` [Example 237], the EC50 in test [1] is 1 to 500 nM; in test [2] it was 2000 to 15000 nM. The IC50 in test [3] lay in the range of 1 to 500 nM; in test [4], 2000 to 15000 nM.
Consider `CCOc1ncc(-c2cc3c([C@@H](C)Nc4ccccc4C(=O)O)cc(C)cc3c(=O)n2C)cc1F` [Example 238], for which the EC50 is 1 to 500 nM in test [1] and more than 15000 nM in test [2]. For the same molecule, the results for the concentration for half-maximal inhibition (IC50) in test [3] and in test [4] were 1 to 500 nM and more than 15000 nM, respectively.
For the molecule `Cc1cc([C@@H](C)Nc2ccccc2C(=O)O)c2cc(-c3cnc(C4CC4)s3)n(C)c(=O)c2c1` [Example 239], the half-maximal effective concentration (EC50) in test [1] was 1 to 500 nM; in test [2], more than 15000 nM. Further, the IC50 in test [3] is 1 to 500 nM; in test [4] it was more than 15000 nM.
In the case of `Cc1cc([C@@H](C)Nc2ccccc2C(=O)O)c2cc(-c3cnc4c(c3)CCC4(F)F)n(C)c(=O)c2c1` [Example 240], the concentration for a half-maximal effect (EC50) is 1 to 500 nM in test [1] and more than 15000 nM in test [2]. For the same molecule, the values for the concentration for half-maximal inhibition (IC50) in test [3] and in test [4] were 1 to 500 nM and more than 15000 nM, respectively.
